In data set [1] the target is T1, Amine oxidase [flavin-containing] B (Mus musculus, UniProt Q8BW75).
T1 sequence (Q8BW75 whole entry): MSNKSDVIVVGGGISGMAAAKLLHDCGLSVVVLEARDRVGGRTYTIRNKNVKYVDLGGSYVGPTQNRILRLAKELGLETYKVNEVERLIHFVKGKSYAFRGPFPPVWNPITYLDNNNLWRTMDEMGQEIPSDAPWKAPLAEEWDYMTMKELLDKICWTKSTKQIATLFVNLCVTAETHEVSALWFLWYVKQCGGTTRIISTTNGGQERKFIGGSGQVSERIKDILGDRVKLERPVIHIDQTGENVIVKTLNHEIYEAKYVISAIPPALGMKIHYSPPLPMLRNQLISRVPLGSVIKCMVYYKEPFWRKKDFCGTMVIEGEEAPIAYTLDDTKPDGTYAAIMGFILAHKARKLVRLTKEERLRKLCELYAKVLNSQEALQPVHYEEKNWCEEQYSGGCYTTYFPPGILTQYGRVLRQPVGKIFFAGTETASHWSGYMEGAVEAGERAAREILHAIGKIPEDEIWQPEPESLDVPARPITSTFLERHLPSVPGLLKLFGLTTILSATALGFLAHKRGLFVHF
The data set can be described thus: Inhibition of MAO-B in mouse cerebral homogenate using kynuramine as substrate after 30 mins by fluorimetry in the presence of MOA-A inhibitor clorgyline.

Data set [2] deals with T1, Amine oxidase [flavin-containing] B. The data set can be described thus: Inhibition of MAO-B in mouse cerebral homogenate using kynuramine as substrate after 30 mins by fluorimetry in the presence of MOA-A inhibitor clorgyline relative to control. Conditions: 0.5 h.
Data set [3] has the same target. The data set can be described thus: Ratio of compound Ki to KW-6002 Ki for MAO-B in mouse cerebral homogenate.

For the compound `Cc1ccc(C(=O)Nc2ccc(-c3nc4c([nH]3)c(=O)n(C)c(=O)n4C)cc2)cc1`, in data set [1], the IC50 amounted to 13.9 µM and the Ki turned out to be 2.77 µM. Also, in data set [2], the “inhibition (INH)” value is 42.3%.

Turning to `COc1ccc(C(=O)Nc2ccc(-c3nc4c([nH]3)c(=O)n(C)c(=O)n4C)cc2)cc1`, in data set [1], the IC50 worked out at 17.2 µM and the Ki was determined as 3.97 µM. For the same compound, the “inhibition (INH)” value in data set [2] was determined as 32.1%.

As for `Cn1c(=O)c2c(nc(-c3ccc(NC(=O)c4ccccc4)cc3)n2C)n(C)c1=O`, in data set [1], the IC50 was found to be 8.9 µM and the Ki turned out to be 0.26 µM. In addition, the “inhibition (INH)” value in data set [2] came out at 67.4%. Moreover, the “Ratio Ki” value in data set [3] is given as 42.

Consider `Cc1ccc(C(=O)Nc2ccc(-c3nc4c(c(=O)n(C)c(=O)n4C)n3C)cc2)cc1`, for which, in data set [1], the IC50 came to 11.3 µM and the Ki worked out at 1.63 µM. Moreover, the “inhibition (INH)” value in data set [2] came out at 53.7%.

Consider `COc1ccc(C(=O)Nc2ccc(-c3nc4c(c(=O)n(C)c(=O)n4C)n3C)cc2)cc1`, for which, in data set [1], the IC50 was 10.7 µM and the Ki was found to be 1.18 µM. Further, the “inhibition (INH)” value in data set [2] came to 58.2%.

In the case of `Cn1c(=O)c2[nH]c(-c3cccc(NC(=O)c4ccccc4)c3)nc2n(C)c1=O`, in data set [1], the IC50 was found to be 18.9 µM and the Ki was 4.21 µM. In data set [2], the “inhibition (INH)” value was found to be 27.9%.

Turning to `Cc1ccc(C(=O)Nc2cccc(-c3nc4c([nH]3)c(=O)n(C)c(=O)n4C)c2)cc1`, in data set [1], the IC50 worked out at 14 µM and the Ki was determined as 2.87 µM. Besides, in data set [2], the “inhibition (INH)” value is recorded as 41.6%.

On to `COc1ccc(C(=O)Nc2cccc(-c3nc4c([nH]3)c(=O)n(C)c(=O)n4C)c2)cc1`, for which, in data set [1], the IC50 is 16 µM and the Ki was 3.49 µM. For the same compound, the “inhibition (INH)” value in data set [2] was 35.1%.

As to `Cn1c(=O)c2c(nc(-c3cccc(NC(=O)c4ccccc4)c3)n2C)n(C)c1=O`, in data set [1], the IC50 was 14.5 µM and the Ki was 2.95 µM. For the same compound, the “inhibition (INH)” value in data set [2] is 40.5%.

In the case of `Cc1ccc(C(=O)Nc2cccc(-c3nc4c(c(=O)n(C)c(=O)n4C)n3C)c2)cc1`, in data set [1], the IC50 amounted to 16.7 µM and the Ki was found to be 3.56 µM. For the same compound, in data set [2], the “inhibition (INH)” value stood at 34.4%.

For the compound `COc1ccc(C(=O)Nc2cccc(-c3nc4c(c(=O)n(C)c(=O)n4C)n3C)c2)cc1`, in data set [1], the IC50 was 17.8 µM and the Ki turned out to be 3.92 µM. In addition, the “inhibition (INH)” value in data set [2] amounted to 30.8%.

One may read the IC50 as the concentration that gives 50% inhibition. One may read the Ki as a measure of affinity in units of concentration, obtained from inhibition or displacement.
